Results taken from publication PMC10735184, “Attractant and repellent induce opposing changes in the four-helix bundle ligand-binding domain of a bacterial chemoreceptor” (PLOS Biology, 2023).

What was measured:
[1] = target: T1, MCP2201 (Comamonas thiooxydans, UniProt A0ABF7PFR0, T108A); test: ITC; type: binding
T1 construct: gene CtCNB1_2201; MCP2201-LBD (residues 58–203), isolated periplasmic domain

[2] = target: T2, MCP2201 (Comamonas thiooxydans, UniProt A0ABF7PFR0); test: ITC; crystal structure at […] Å; analytical ultracentrifugation; type: binding
T2 construct: gene CtCNB1_2201; MCP2201-LBD (residues 58–203), N-terminal His6-tag
T2 sequence (A0ABF7PFR0 58-203): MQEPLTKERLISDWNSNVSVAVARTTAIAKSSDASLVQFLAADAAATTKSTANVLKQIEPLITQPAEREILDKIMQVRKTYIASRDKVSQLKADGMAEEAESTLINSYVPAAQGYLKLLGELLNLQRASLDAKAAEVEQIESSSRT

For `O=C(O)C[C@H](O)C(=O)O` [L-malate], which Kd [1] is on record?
Its Kd is 995 ± 438 µM.

What about the Kd [2] of the same molecule?
Its Kd is 18.8 ± 7.45 µM.
